Test results from the supplement of paper PMC6045584.
± gives the standard deviation of the averaged measurements.

Legend:
[1] = compound: COc1ccc(-c2cc3c(C)nc(N)nc3n([C@H]3CC[C@H](OCCO)CC3)c2=O)cn1; test: surviving fraction relative to DMSO-only wells; higher = less growth inhibition; conditions: exposure time: 5 days
In short: (§1)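 Viability values are CellTiter-Glo luminescence readings, given as surviving fraction against the median of DMSO-only wells. The readings were taken after 10 minutes at room temperature, following five days of continuous exposure to inhibitors at 0.5, 1, 5, 10, 50, 100, 500 and 1000 nM that began 24 hours after log-phase tumour cell lines were seeded at 250–500 cells per well in 384-well plates. Every line was screened three times and kept only if replicate Pearson r >0.7 and median Z' >0.3.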

[2] = compound: O=C(CCCCCCC(=O)Nc1ccccc1)NO [VORINOSTAT]; test: as above; conditions: exposure time: 5 days
In short: as §1

Test System | surviving fraction ([1]; 0.5 nM) | surviving fraction ([1]; 1 nM) | surviving fraction ([1]; 5 nM) | surviving fraction ([1]; 10 nM) | surviving fraction ([1]; 50 nM) | surviving fraction ([1]; 100 nM) | surviving fraction ([1]; 500 nM) | surviving fraction ([1]; 1000 nM) | surviving fraction ([2]; 0.5 nM) | surviving fraction ([2]; 1 nM) | surviving fraction ([2]; 5 nM) | surviving fraction ([2]; 10 nM) | surviving fraction ([2]; 50 nM) | surviving fraction ([2]; 100 nM) | surviving fraction ([2]; 500 nM) | surviving fraction ([2]; 1000 nM)
HUO3N1 BONE | 0.986 ± 0.036 | 0.981 ± 0.039 | 0.924 ± 0.061 | 0.855 ± 0.028 | 0.614 ± 0.013 | 0.494 ± 0.026 | 0.242 ± 0.012 | 0.188 ± 0.003 | 1.03 ± 0.016 | 0.975 ± 0.051 | 0.988 ± 0.027 | 0.964 ± 0.032 | 1.012 ± 0.0098 | 1.06 ± 0.081 | 0.987 ± 0.032 | 0.559 ± 0.011
JIMT1 BREAST | 0.983 ± 0.03 | 0.961 ± 0.023 | 0.968 ± 0.011 | 0.937 ± 0.024 | 0.857 ± 0.021 | 0.606 ± 0.022 | 0.19 ± 0.0061 | 0.114 ± 0.013 | 0.924 ± 0.0097 | 0.995 ± 0.017 | 1.01 ± 0.037 | 0.986 ± 0.013 | 1.07 ± 0.027 | 1.006 ± 0.01 | 0.686 ± 0.01 | 0.448 ± 0.037
JURKAT HAEMATOPOIETIC AND LYMPHOID TISSUE | 1.07 ± 0.026 | 1.09 ± 0.024 | 1.04 ± 0.021 | 1 ± 0.022 | 0.741 ± 0.017 | 0.57 ± 0.013 | 0.213 ± 0.011 | 0.135 ± 0.0042 | 1.1 ± 0.026 | 1.105 ± 0.01 | 1.09 ± 0.032 | 1.05 ± 0.02 | 1.04 ± 0.013 | 1.01 ± 0.023 | 0.696 ± 0.037 | 0.039 ± 0.001
KPD BONE | 0.973 ± 0.033 | 0.95 ± 0.056 | 0.908 ± 0.032 | 0.852 ± 0.032 | 0.486 ± 0.028 | 0.313 ± 0.019 | 0.0613 ± 0.0067 | 0.038 ± 0.0046 | 0.943 ± 0.058 | 0.981 ± 0.032 | 1.09 ± 0.068 | 1.02 ± 0.067 | 1.07 ± 0.074 | 0.994 ± 0.083 | 0.907 ± 0.048 | 0.65 ± 0.021
LM7 BONE | 0.996 ± 0.022 | 0.896 ± 0.031 | 0.947 ± 0.019 | 0.906 ± 0.057 | 0.691 ± 0.023 | 0.578 ± 0.022 | 0.205 ± 0.012 | 0.0677 ± 0.005 | 1.01 ± 0.1 | 0.999 ± 0.041 | 1.09 ± 0.059 | 1.03 ± 0.08 | 1.11 ± 0.12 | 1.1 ± 0.04 | 0.934 ± 0.12 | 0.8 ± 0.032
LNCAP PROSTATE | 0.877 ± 0.095 | 0.872 ± 0.045 | 0.759 ± 0.026 | 0.622 ± 0.041 | 0.226 ± 0.024 | 0.099 ± 0.012 | 0.0437 ± 0.0051 | 0.035 ± 0.0044 | 1.11 ± 0.14 | 0.952 ± 0.22 | 0.842 ± 0.19 | 0.861 ± 0.053 | 0.904 ± 0.15 | 0.784 ± 0.042 | 0.361 ± 0.055 | 0.159 ± 0.016
MCF7 BREAST | 0.875 ± 0.029 | 0.851 ± 0.016 | 0.807 ± 0.027 | 0.764 ± 0.058 | 0.527 ± 0.0077 | 0.358 ± 0.0078 | 0.185 ± 0.0036 | 0.181 ± 0.0076 | 0.854 ± 0.026 | 0.839 ± 0.033 | 0.864 ± 0.011 | 0.781 ± 0.026 | 0.977 ± 0.034 | 0.845 ± 0.028 | 0.742 ± 0.0093 | 0.648 ± 0.0092
MDAMB134 BREAST | 0.973 ± 0.12 | 0.869 ± 0.11 | 0.864 ± 0.061 | 0.839 ± 0.19 | 0.639 ± 0.11 | 0.682 ± 0.064 | 0.361 ± 0.0042 | 0.293 ± 0.05 | 0.938 ± 0.037 | 0.937 ± 0.17 | 0.987 ± 0.0099 | 0.857 ± 0.011 | 0.935 ± 0.026 | 0.949 ± 0.16 | 0.688 ± 0.04 | 0.781 ± 0.025
MDAMB157 BREAST | 0.899 ± 0.061 | 0.963 ± 0.12 | 0.802 ± 0.051 | 0.812 ± 0.042 | 0.705 ± 0.079 | 0.618 ± 0.088 | 0.432 ± 0.042 | 0.332 ± 0.02 | 0.889 ± 0.089 | 0.896 ± 0.034 | 0.939 ± 0.04 | 0.973 ± 0.069 | 1.01 ± 0.065 | 0.951 ± 0.068 | 0.825 ± 0.024 | 0.321 ± 0.04
MDAMB231 BREAST | 0.98 ± 0.011 | 0.985 ± 0.021 | 0.949 ± 0.016 | 0.902 ± 0.018 | 0.645 ± 0.0077 | 0.495 ± 0.013 | 0.182 ± 0.0094 | 0.145 ± 0.0081 | 0.995 ± 0.015 | 1 ± 0.017 | 0.993 ± 0.03 | 0.983 ± 0.025 | 1.01 ± 0.028 | 0.971 ± 0.042 | 0.805 ± 0.02 | 0.358 ± 0.0067
MDAMB361 BREAST | 0.905 ± 0.065 | 0.953 ± 0.1 | 0.852 ± 0.056 | 0.775 ± 0.096 | 0.78 ± 0.082 | 0.604 ± 0.026 | 0.248 ± 0.02 | 0.205 ± 0.028 | 0.809 ± 0.028 | 0.871 ± 0.097 | 0.796 ± 0.019 | 0.825 ± 0.037 | 0.783 ± 0.096 | 0.843 ± 0.077 | 0.596 ± 0.014 | 0.378 ± 0.015
